Measurements as given in patent US9505735B2, “Compounds for treating infectious diseases” (Whitehead Institute for Biomedical Research, priority 2012, dated 2016).
“And” between values parts separate entries of the source, which are not always exact repeats. Equal values may be shown once. Read-outs that look alike come from different tables or passages of the source.

What was measured:
[1] = tested on: Wildtype S. cerevisiae BY4741; assay: Antifungal susceptibility testing, wildtype yeast; type: cell-based; settings: Saccharomyces cerevisiae, read-out: EC50 Avg
Protocol: Archives of all strains were maintained in 25% glycerol at −80° C. Standard S. cerevisiae lab strains W303, BY4741, BY4742 and BY4743 were used for experiments. The C. albicans wild type strain in FIG. 1 was CaI4, a standard laboratory strain (Fonzi, et al. (1993) Genetics 134, 717-728). The C. albicans fluconazole-resistant strains CaCi-2, CaCi-8 and CaCi17 were generously provided by Ted White and originally collected by Spencer Redding and colleagues (White, (1997) Antimicrob Agents Chemother 41, 1488-1494; White, (1997) Antimicrob Agents Chemother 41, 1482-1487; White, et al. (1997) Oral Dis 3 Suppl 1, S102-109). The sequenced C. albicans wild type strain, Sc5314 (Gillum, et al. (1984) Mol Gen Genet 198, 179-182) used in P-glucan experiments was a gift from John Perfect's lab. CaAmphR, an amphotericin B-resistant strain is from ATCC (#20095). Caspofungin-resistant strain Cfr1 was derived by plating Sc5314 on caspofungin plates and isolating resistant colonies. A. terreus was purchased from ATCC (MYA-3633). The C. glabrata strain CgL5c was obtained from John Bennett's lab. The YKO heterozygous diploid strain collection is from Open Biosystems and was generated in BY4743. Haploid deletion strains were from the Yeast Knock-out Deletion Collection and purchased from Invitrogen. The over-expression library was made by transforming BY4741 with the Harvard Institute of Proteomics Flexgene library.
(§1) Sensitivity to gepinacin was determined in 96-well, flat bottom microtiter plates using a modification of the NCCLS broth microdilution protocol CLS M27-A3 and RPMI as culture medium. Fungi were inoculated at ˜10^3 cells per ml and incubated for 48 hours at 37° C. after which plates were sealed, shaken and the optical density read at 600 nm (OD600) on a Tecan Safire 2 plate reader. All samples were run in duplicate or triplicate and assays were repeated at least once. Results are expressed as fraction of growth in the absence of compound and the mean and standard deviation are plotted. For the mold A. terreus, inoculum was 10^4 cells per ml and plates were incubated at 35° C. for 48 hours in the dark. Plates were then visually scored as specified by CLSI document M38-A2 to determine the MIC50 and MIC80.
(§2) The following gepinacin analogs were tested for activity against Gwt1. Gepinacin, M3, CM2, CM4, CM6, CM7, CM8, and 857621-56-8 were available commercially. The compounds were tested using the “Antifungal Susceptibility Testing” protocol described above. Fungi tested are described in the “Fungal Strains” section above.

Gwt1 = target: T1, Gwt1 (Saccharomyces cerevisiae, UniProt P47026); assay: Antifungal susceptibility testing, screening strains with plasmid-borne GWT1 (low or high copy); type: cell-based, S. cerevisiae
T1 construct: Wildtype S. cerevisiae BY4741; endogenous in cells; host or cells: S. cerevisiae BY4741 (wild type)
T1 sequence (P47026 1-490): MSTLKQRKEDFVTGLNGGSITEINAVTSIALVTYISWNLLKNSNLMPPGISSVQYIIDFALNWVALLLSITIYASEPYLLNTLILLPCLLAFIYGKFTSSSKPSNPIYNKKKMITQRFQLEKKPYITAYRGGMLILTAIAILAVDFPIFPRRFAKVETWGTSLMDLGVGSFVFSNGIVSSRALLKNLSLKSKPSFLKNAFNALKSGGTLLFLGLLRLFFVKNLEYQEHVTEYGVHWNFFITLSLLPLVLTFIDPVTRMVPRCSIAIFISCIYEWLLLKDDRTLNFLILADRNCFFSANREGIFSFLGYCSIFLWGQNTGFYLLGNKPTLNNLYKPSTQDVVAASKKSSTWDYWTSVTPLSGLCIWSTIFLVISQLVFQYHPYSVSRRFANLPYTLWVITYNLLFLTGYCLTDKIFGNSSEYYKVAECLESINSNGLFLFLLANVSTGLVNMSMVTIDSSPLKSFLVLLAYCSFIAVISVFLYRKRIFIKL
Protocol: as §1
Because GWT1 deletion is lethal in S. cerevisiae strain BY4741, a haploid shuttle strain was constructed in which the genomic copy of GWT1 was deleted and replaced by GWT1 on a plasmid that also encoded the URA3 gene and a G418-resistance gene. To construct this shuttle strain a gwt1Δ/GWT1 heterozygous deletion mutant was transformed with pAGGPD416-GWT1, sporulated and dissected. A colony was selected that grew on both SD-URA and G418-containing plates. PCR with the deletion specific primers (http://wwwsequence.stanford.edu/group/yeast_deletion_project/deletions3.html) was performed to confirm the GWT1 deletion. To change the source of GWT, this shuttle strain was transformed with plasmids containing GWT1 (as a control) or PIG-W and the LEU2 auxotrophy gene followed by selection for growth on SD-LEU plates. Plasmids were constructed by conventional Gateway technology using a GWT1 encoding entry vector and either pAG415GPDccdB or pAG425GPDccdB as the destination vectors. Positive colonies were selected and grown on 5-fluoroorotic acid (5-FOA)-containing plates to promote loss of the pAGGPD416-GWT1 plasmid. The colonies from this plate were then tested for return of uridine auxotrophy to confirm pAGGPD416-GWT1 loss. The PIG-W expression vector was constructed by recombination in yeast as follows. The pAG415GPDccdB vector was cut with Xho1 and Xba1 and the larger piece was gel and column purified. The coding sequence of PIG-W was PCR amplified from the entry clone so that it would have ends facilitating recombination with the cut vector. The shuttle strain was then transformed with these two DNA fragments and plated on SD-LEU plates to select for recombinants. PIG-W plasmid was isolated from the final strain and sequence verified.
as §2
An S. cerevesiae strain was generated in which the endogenous Gwt1 gene was deleted. Plasmids (either high copy or low copy) with either S. cerevesiae or human Gwt1 were introduced to produce strains bearing such plasmids expressing either S. cerevesiae or human Gwt1 from a constitutive promoter. Yeast strains were cultured in liquid media in the presence of indicated compounds. Shown in FIGS. 22A-D show the effect of the indicated compounds on growth (assessed by OD600) and viability (assessed using Bactiter Glo) of the yeast strain with high copy or low copy plasmid containing S. cerevesiae Gwt1. The compounds had no effect on strains with the human Gwt1, thus showing the compounds' sensitivity for the fungal (yeast) Gwt1 gene.

PIG-W = target: T2, PIG-W (Homo sapiens, UniProt Q7Z7B1); assay: Growth of S. cerevisiae strain whose GWT1 is replaced by the human gene PIG-W; type: cell-based
T2 construct: expressed in transfected cells; host or cells: S. cerevisiae BY4741-derived gwt1 deletion shuttle strain carrying a pAG415GPD-based PIG-W plasmid
T2 sequence (Q7Z7B1 1-504): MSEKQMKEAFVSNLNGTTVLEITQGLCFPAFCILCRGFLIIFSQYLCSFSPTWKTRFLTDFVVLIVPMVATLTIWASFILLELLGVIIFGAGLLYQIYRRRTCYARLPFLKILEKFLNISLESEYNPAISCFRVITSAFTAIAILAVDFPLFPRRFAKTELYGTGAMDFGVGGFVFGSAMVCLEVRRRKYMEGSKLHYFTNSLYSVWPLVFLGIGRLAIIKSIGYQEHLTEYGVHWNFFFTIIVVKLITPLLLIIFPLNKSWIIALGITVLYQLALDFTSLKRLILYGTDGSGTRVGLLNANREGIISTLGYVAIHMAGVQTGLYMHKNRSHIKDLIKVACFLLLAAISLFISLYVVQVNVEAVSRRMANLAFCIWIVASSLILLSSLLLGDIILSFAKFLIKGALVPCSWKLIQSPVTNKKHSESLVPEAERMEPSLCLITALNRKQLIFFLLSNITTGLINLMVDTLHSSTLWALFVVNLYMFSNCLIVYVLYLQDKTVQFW
Protocol: as §1
Because GWT1 deletion is lethal in S. cerevisiae strain BY4741, a haploid shuttle strain was constructed in which the genomic copy of GWT1 was deleted and replaced by GWT1 on a plasmid that also encoded the URA3 gene and a G418-resistance gene. […]
An S. cerevesiae strain was generated in which the endogenous Gwt1 gene was deleted. […] Shown in FIGS. 22A-D show the effect of the indicated compounds on growth (assessed by OD600) and viability (assessed using Bactiter Glo) of the yeast strain with high copy or low copy plasmid containing S. cerevesiae Gwt1. […]

[2] = tested on: unfolded protein response; assay: Unfolded protein response GFP reporter (UPRE-GFP), flow cytometry; type: cell-based, S. cerevisiae; settings: 5 hours
Protocol: Induction of the unfolded protein response in cells carrying a GFP reporter construct was monitored by flow cytometry after exposure to serial dilutions of the indicated compounds for 5 hrs.
The plasmid pRS304-4XUPRE-GFP was linearized and integrated into the TRP1 locus of S. cerevisiae (W303) to construct a reporter strain as previously described (Cox, et al. (1993) Cell 73, 1197-1206; Pollard, et al. (1998) Mol Cell 1, 171-182). Reporter cells were grown to log phase and exposed to compound at 23° C. for 5 hours before analysis. GFP reporter induction was monitored on a Guava EasyCyte Plus cytometer. The average mean channel fluorescence of duplicate samples was determined, and the experiment was performed twice with similar results.

[3] = tested on: S. cerevisiae strains deleted for IRE1 or HAC1; assay: Antifungal susceptibility testing of UPR-deficient strains; type: cell-based; settings: 48 hour
Protocol: (§3) (A) Immunoblots of lysates prepared from S. cerevisiae treated with gepinacin showing GPI-anchor-selective impairment of protein maturation. The unprocessed (u), precursor (p), and mature (m) forms of the reporter proteins are indicated. The identity of the tagged reporter proteins (top of panel) and the antibodies used for their detection (bottom of panel) are also indicated. Treatment conditions are DMSO (0.05%), gepinacin (GPN, 10 μM) or tunicamycin (Tun, 10 μM). The same lysate was used for both blots. […] GFP expression was monitored by flow cytometry. (C) Anti-fungal susceptibility testing of strains deleted for IRE1 (activator of the UPR) or HAC1 (effector of the UPR) showing their increased sensitivity to gepinacin.
Anti-fungal susceptibility testing of strains bearing deletion of IRE1 (activator of the UPR) or HAC1 (effector of the UPR) using either […] (A) or fluconazole (B). Growth was measured by OD600 after 48 hour exposure to serial dilutions of the compounds as indicated. Results are expressed as a fraction of the OD600 measured in the absence of gepinacin. The mean and standard deviation of triplicate determinations are shown.

Gas1 and CPY maturation = assay: Protein trafficking analysis (immunoblot of reporter proteins); type: cell-based, S. cerevisiae; settings: 10 μM, 1 hour
Protocol: as §3
HA-tagged GAS1 was expressed in strain BY4741 CPY-GFP (Yeast GFP collection (Huh, et al. (2003) Nature 425, 686-691) under control of its own promoter using plasmid pCM-HA-GAS1. This construct was created as previously reported except in a gateway plasmid backbone (Fujita, et al. (2006) Mol Biol Cell 17, 834-850). To assess effects on trafficking, strains were incubated for 1 hour at 30° C. with test compounds. Total cellular protein (5 μg) was separated by electrophoresis (Invitrogen 8% gels) and transferred to nitrocellulose membranes. Blots were hybridized with antibodies against HA (Covance), GFP (Roche), or CPY (Invitrogen). Sizes for the various post-translationally modified products of Gas1HA2 and CPY have been previously reported (Fujita, et al. (2006) Mol Biol Cell 17, 834-850). CPY-GFP was used to facilitate discrimination of CPY processing steps because GFP is cleaved from CPY in the yeast vacuole. The experiment, however, was also performed with untagged CPY with the same results.

[4] = EC50 High Copy GWT1, Screening strains, high copy GWT1 plasmid
[5] = EC50 Low Copy GWT1, Screening strains, low copy GWT1 plasmid

Row | Molecule | EC50 (Gwt1; [4]) | EC50 (Gwt1; [5]) [µM] | activation of the unfolded protein response (GFP reporter) [2] | other results
1 | CC(C)COc1cccc(OCC(=O)Nc2ccc(F)cc2)c1 [CM2] | 3.07 µM | 1.16 | – | EC50 ([1]; Wildtype S. cerevisiae BY4741): 7.05 µM
2 | CC(C)COc1cccc(OCC(=O)Nc2ccc(N(C)C)cc2)c1 [CM3] | – | – | – | EC50 [1]: 18.2 µM
3 | COc1ccc(NC(=O)COc2cccc(OCCC(C)C)c2)cc1 [CM7] | 6.2 µM | 1.31 | – | EC50 ([1]; Wildtype S. cerevisiae BY4741): 2.65 µM
4 | COc1ccc(NC(=O)COc2cccc(OCC(C)C)c2)cc1 [LW16] | 1.17 µM and 1.89 µM and 8.6 µM | – | – | EC50 ([1]; Wildtype S. cerevisiae BY4741): 2.9 µM
5 | COc1ccc(NC(=O)C(C)Oc2cccc(OCc3ccccc3)c2)cc1 (stereo not drawn) [MAZ1844] | – | – | – | activity against PigW / in the PIG-W expressing strain (PIG-W): active; activity against Gwt1 (Gwt1): not Gwt1
6 | COc1ccc(NC(=O)C(C)Oc2cccc(OCC(C)C)c2)cc1 (stereo not drawn) [MAZ1855] | 93.1 µM | 12.8 | – | –
7 | COc1ccc(NC(=O)COc2cccc(OCc3ccccc3)c2)cc1 [MAZ1857] | 268 µM | 177 | – | –
8 | COc1ccc(NC(=O)COc2cccc(Oc3ccccn3)c2)cc1 [MAZ1859] | 7.2 µM | 4.9 | – | –
9 | C[C@@H]1[C@H](O)[C@@H](C)/C=C/C=C/C=C/C=C/C=C/C=C/C=C/[C@H](O[C@@H]2O[C@H](C)[C@@H](O)[C@H](N)[C@@H]2O)C[C@@H]2O[C@](O)(C[C@@H](O)C[C@@H](O)[C@H](O)CC[C@@H](O)C[C@@H](O)CC(=O)O[C@H]1C)C[C@H](O)[C@H]2C(=O)O [amphotericin B] | – | – | not seen | –
10 | CC[C@H](C)C[C@H](C)CCCCCCCCC(=O)N[C@H]1C[C@@H](O)[C@@H](NCCN)NC(=O)[C@@H]2[C@@H](O)CCN2C(=O)[C@H]([C@H](O)CCN)NC(=O)[C@H]([C@H](O)[C@@H](O)c2ccc(O)cc2)NC(=O)[C@@H]2C[C@@H](O)CN2C(=O)[C@H]([C@@H](C)O)NC1=O [caspofungin] | – | – | not seen | –
11 | OC(Cn1cncn1)(Cn1cncn1)c1ccc(F)cc1F [fluconazole, reference compound] | – | – | not seen | change of toxicity by deletion of HAC1 or IRE1 [3]: completely unaffected
12 | tunicamycin [reference compound] | – | – | Strong induction | CPY (not GPI-anchored) processing (Gas1 and CPY maturation): alters the processing of both proteins; Gas1 (GPI-anchored) maturation: mature versus precursor form (Gas1 and CPY maturation): alters the processing of both proteins
